This is an account of results in ChEMBL document CHEMBL1759955, “6-Benzoyl-3-hydroxypyrimidine-2,4-diones as dual inhibitors of HIV reverse transcriptase and integrase” (Bioorg Med Chem Lett, 2011).

For series [1], the system named is CEM-SS. Kind of series: Cytotoxicity against human CEM-SS cells. It counts as cell-based.
Series [2] in a line: Therapeutic index, ratio of CC50 for human CEM-SS cells to EC50 for HIV-1 3B infected in human CEM-SS cells. The series is classed as cell-based. The settings on record: CEM-SS cells (uninfected, and infected with HIV-1 3B).
Series [3] has as its system CEM-SS. The experiment in a line: Cytotoxicity against human CEM-SS cells assessed as viable cells at 10 uM. It counts as cell-based.
The subject of series [4] is Human immunodeficiency virus 1. The experiment in a line: Antiviral activity against HIV-1 3B infected in human CEM-SS cells. It counts as functional, organism-based. The following applies: Human immunodeficiency virus 1, 3B.
For series [5], the target named is T1, Human immunodeficiency virus type 1 integrase (Human immunodeficiency virus 1, UniProt Q7ZJM1). The experiment in a line: Inhibition of HIV1 integrase strand transfer activity.
T1 sequence (Q7ZJM1 whole entry): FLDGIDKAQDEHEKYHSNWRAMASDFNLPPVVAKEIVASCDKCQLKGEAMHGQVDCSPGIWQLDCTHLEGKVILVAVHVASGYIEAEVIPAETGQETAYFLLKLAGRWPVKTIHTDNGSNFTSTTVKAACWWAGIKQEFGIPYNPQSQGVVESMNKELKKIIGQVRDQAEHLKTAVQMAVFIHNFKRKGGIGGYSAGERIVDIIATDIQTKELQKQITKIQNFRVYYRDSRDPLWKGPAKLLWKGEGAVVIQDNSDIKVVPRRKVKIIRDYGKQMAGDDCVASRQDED
Series [6] concerns Human immunodeficiency virus 1. Kind of series: Antiviral activity against HIV-1 3B infected in human CEM-SS cells assessed as protection against virus induced cytopathic effect at 10 uM. It counts as functional. The settings on record: Human immunodeficiency virus 1, 3B. Background: Cytopathic effects are the visible damage that an infection or toxin causes in cultured cells.

Series [7] addresses Human immunodeficiency virus type 1 reverse transcriptase (Human immunodeficiency virus 1, UniProt Q72547). The experiment in a line: Inhibition of HIV-1 reverse transcriptase.
Series [8] has as its target T1, Human immunodeficiency virus type 1 integrase. The experiment in a line: Inhibition of HIV1 integrase 3'-end processing activity.
In series [9] the target is Human immunodeficiency virus type 1 reverse transcriptase (Human immunodeficiency virus 1) (UniProt Q72547). The experiment in a line: Inhibition of HIV-1 reverse transcriptase at 10 uM.
For series [10] the target is unchanged. The experiment in a line: Inhibition of HIV-1 reverse transcriptase at 100 uM.

Structures are written as SMILES.

For `CCOCn1c(C(=O)c2cc(C)cc(C)c2)c(CC)c(=O)n(O)c1=O`, in [1], half-maximal cytotoxicity (CC50) was put at 77 µM. The selectivity ratio in series [2] stood at 2600. In addition, the Activity in series [3] was found to be 100%. In addition, the EC50 in series [4] was 0.03 µM. Further, the results for the IC50 in series [5], in series [7] and in [8] were over 111 µM, 0.5 µM and over 111 µM, respectively. Also, in series [6], the inhibition at 10 µM was 100%. The values for the inhibition in series [9] and in series [10] were 61% and 94%, respectively.

With `CCc1c(C(=O)c2ccccc2)n(COCc2ccc(F)cc2)c(=O)n(O)c1=O`, in series [1], the CC50 was over 100 µM. For the same compound, the selectivity ratio in [2] was over 50. The Activity in series [3] stood at 100%. For the same compound, the EC50 in [4] came out at 2 µM. The IC50 in series [5] was 25 µM; in series [7], 23 µM; in series [8], over 111 µM. For the same compound, the inhibition at 10 µM in [6] was found to be 100%.

With `CCOCn1c(C(=O)c2ccccc2)c(CC)c(=O)n(O)c1=O`, the midpoint of cytotoxicity in [1], the CC50, lay at 94 µM. For the same compound, the selectivity ratio in series [2] amounted to 41. In addition, the Activity in series [3] came out at 100%. For the same compound, in series [4], the EC50 turned out to be 2.3 µM. In addition, the IC50 in [5] was over 111 µM; in series [7], 43 µM; in series [8], over 111 µM. Besides, the inhibition at 10 µM in series [6] turned out to be 100%.

In turn, `CCc1c(C(=O)c2cc(C)cc(C)c2)n(COCc2ccc(F)cc2)c(=O)n(O)c1=O` registered a CC50 in series [1] of 28 µM. The selectivity ratio in series [2] was 78. In series [3], the Activity turned out to be 100%. In [4], this compound had an EC50 of 0.36 µM. Further, the IC50 in series [5] was 21 µM; in series [7], 7.6 µM; in series [8] it was over 111 µM. Besides, the inhibition at 10 µM in series [6] is 100%.

Consider `CCc1c(C(=O)c2cc(C)cc(C)c2)n(COCCc2ccc(F)cc2)c(=O)n(O)c1=O`, for which, in series [3], the Activity came to 81%. Moreover, the IC50 in series [5] was 7 µM; in series [7] it was 10 µM; in [8] it was over 111 µM. The inhibition at 10 µM in [6] is 56%. Also, the inhibition was determined as 60% in [9] and 74% in [10].

As to `CCc1c(C(=O)c2ccccc2)n(COCCc2ccc(F)cc2)c(=O)n(O)c1=O`, the CC50 in [1] was over 100 µM. Also, the selectivity ratio in [2] was over 290. Moreover, in [3], the Activity stood at 100%. The compound further displayed an EC50 in [4] of 0.34 µM. For the same compound, the IC50 in series [5] is 4.1 µM; in series [8] it was over 111 µM. In [6], the inhibition at 10 µM came out at 100%. Also, the inhibition turned out to be 4% in series [9] and 46% in [10].

For the compound `CCc1c(C(=O)c2ccccc2)n(COCc2ccccc2)c(=O)n(O)c1=O`, the CC50 in series [1] is over 100 µM. Further, in series [2], the selectivity ratio is over 71. The Activity in series [3] is 98%. In addition, in series [4], the EC50 was 1.4 µM. Besides, the figures for the IC50 in [5], in series [7] and in [8] were 37 µM, 14 µM and over 111 µM, respectively. Besides, the inhibition at 10 µM in series [6] was 100%.

In series [1], `CCc1c(C(=O)c2cc(C)cc(C)c2)n(COCc2ccccc2)c(=O)n(O)c1=O` gave a CC50 of 33 µM. Also, the selectivity ratio in series [2] was found to be 540. Also, in series [3], the Activity is given as 100%. Also, in series [4], a half-maximal response (EC50) required 0.061 µM. The IC50 in series [5] is 41 µM; in series [7] it was 1 µM; in series [8], over 111 µM. In addition, in [6], the inhibition at 10 µM came to 100%. For the same compound, the inhibition in [9] came out at 79%; in series [10] it was 92%.

In general, CC50 refers to the concentration that lowers cell viability or growth by half. Higher therefore signals better tolerance by the cells. The term EC50 denotes the concentration that produces a half-maximal response. Higher therefore signals a need for much substance. As a reminder, the IC50 is the midpoint of a concentration-inhibition curve. One may read the inhibition as the percentage by which the read-out fell short of the control.
